Data on eleven molecules can be found in US20250122191A1, “COMPOUNDS AS BCL-2 INHIBITORS” (Fochon Biosciences, Ltd, priority 2021, published 2025).

The test concerns RS4;11-BCL-2 G101V cells. Kind of test: Cell proliferation assay (MTS), RS4;11-BCL-2 G101V engineered cells. The test is classed as cell-based. The conditions noted are these: Homo sapiens, 120 h, read-out: RS4, 11 BCL2-G101V IC50. From the text: MTS testing kit was purchased from Promega (Madison, WI, USA). The RPMI-1640, Fetal bovine serum and Penicillin-Streptomycin were purchased from BI (Biological Industries, Beit Haemek, Israel). Puromycin was purchased from Beyotime (shanghai, China). Dimethyl sulfoxide (DMSO) was purchased from Sigma (St. Louis., MO, USA). RS4;11-BCL-2 G101V (Cobioer Lot. #: CBD2021063013P4), RS4;11-BCL-2 D103E (Cobioer Lot. #: CBD2021063013P4), RS4;11-BCL-2 D103Y (Cobioer Lot. #: CBD2022012101P4) and RS4;11-BCL-2 F104L (Cobioer Lot. #: CBD2021063014P4) cells were cultured in RPMI1640 supplemented with 1 ug/mL puromycin, 100 U/mL Penicillin-Streptomycin and 10% FBS.
To investigate whether a compound is able to inhibit the activity of BCL-2 mutation in cells, a mechanism-based assay using engineered cell lines stably overexpressing BCL-2 mutation (RS4;11-BCL-2 G101V, RS4;11-BCL-2 D103E, RS4;11-BCL-2 D103Y, and RS4;11-BCL-2 F104L) was developed. In this assay, the inhibition of BCL-2 mutation was reflected by the inhibition of cell proliferation of engineered RS4;11 cells. Cells were plated into 96-well plates at optimized cell density (RS4;11-BCL-2 G101V: 5000 cells/well; RS4;11-BCL-2 D103E: 7500 cells/well; RS4;11-BCL-2 D103Y: 7500 cells/well; RS4;11-BCL-2 F104L: 5000 cells/well). Plates were incubated at 37° C., with 5% CO2 for 4 h (RS4;11-BCL-2 G101V, RS4;11-BCL-2 F104L) and 24 h (RS4;11-BCL-2 D103E, RS4;11-BCL-2 D103Y), respectively. Compounds were serially diluted and added to the plates with the final concentrations of 10000, 3333.3, 1111.1, 370.4, 123.5, 41.2, 13.7, 4.6 and 1.5 nM. Plates were incubated at 37° C., with 5% CO2 for 120 h (RS4; 11-BCL-2 G101V, RS4; 11-BCL-2 F104L) and 72 h (RS4;11-BCL-2 D103E, RS4;11-BCL-2 D103Y), respectively. 20 μl MTS was added into each well and the plates were incubated at 37° C., with 5% CO2 exactly for 2 h. The absorbance was measured by a microplate reader at 490 nm. IC50 values were calculated using GraphPad Prism 8.0 software.
On to `COc1nc2[nH]cc(F)c2cc1Oc1cc(N2CCC3(CC2)CC(N2CCN(C4CCC(O)CC4)C[C@H]2c2ccccc2C(C)C)C3)ccc1C(=O)NS(=O)(=O)c1cnc(NC[C@H]2CC[C@](C)(O)CC2)c([N+](=O)[O-])c1` (single isomer, unassigned) [Example 332], for which the IC50 (as a rule, the point on the concentration scale where inhibition reaches its midpoint) amounted to 1 nM.

For the molecule `COc1ccc(CN2CCN(C3CC4(CCN(c5ccc(C(=O)NS(=O)(=O)c6cnc(NC[C@H]7CC[C@](C)(O)CC7)c([N+](=O)[O-])c6)c(Oc6cc7c(F)c[nH]c7nc6OC)c5)CC4)C3)[C@H](c3ccccc3C3CC3)C2)cc1` [Example 52, 4-(2-((R)-2-(2-cyclopropylphenyl)-4-(4-methoxybenzyl)piperazin-1-yl)-7-azaspiro[3.5]nonan-7-yl)-2-((3-fluoro-6-methoxy-1H-pyrrolo[2,3-b]pyridin-5-yl)oxy)-N-((6-((((1r,4r)-4-hydroxy-4-methylcyclohexyl)methyl)amino)-5-nitropyridin-3-yl)sulfonyl)benzamide], the IC50 amounted to 1 nM.

As to `COc1nc2[nH]cc(F)c2cc1Oc1cc(N2CCC3(CC2)CC(N2CCN(Cc4ccnc(N)c4)C[C@H]2c2ccccc2C(C)C)C3)ccc1C(=O)NS(=O)(=O)c1cnc(NC[C@H]2CC[C@](C)(O)CC2)c([N+](=O)[O-])c1` [Example 70, 4-(2-((R)-4-((2-aminopyridin-4-yl)methyl)-2-(2-isopropylphenyl)piperazin-1-yl)-7-azaspiro[3.5]nonan-7-yl)-2-((3-fluoro-6-methoxy-1H-pyrrolo[2,3-b]pyridin-5-yl)oxy)-N-((6-((((1r,4r)-4-hydroxy-4-methylcyclohexyl)methyl)amino)-5-nitropyridin-3-yl)sulfonyl)benzamide], the IC50 was 1 nM.

Take `CCOc1nc2[nH]cc(F)c2cc1Oc1cc(N2CCC3(CC2)CC(N2CCN(Cc4ccc(OC)cc4F)C[C@H]2c2ccccc2C(C)C)C3)ccc1C(=O)NS(=O)(=O)c1cnc(NC[C@H]2CC[C@](C)(O)CC2)c([N+](=O)[O-])c1` [Example 106, 2-((6-ethoxy-3-fluoro-1H-pyrrolo[2,3-b]pyridin-5-yl)oxy)-4-(2-((R)-4-(2-fluoro-4-methoxybenzyl)-2-(2-isopropylphenyl)piperazin-1-yl)-7-azaspiro[3.5]nonan-7-yl)-N-((6-((((1r,4r)-4-hydroxy-4-methylcyclohexyl)methyl)amino)-5-nitropyridin-3-yl)sulfonyl)benzamide]: the IC50 stood at 1 nM.

Regarding `COc1nc2[nH]cc(F)c2cc1Oc1cc(N2CCC3(CC2)CC(N2CCN(C4COC4)C[C@H]2c2ccccc2C(C)C)C3)ccc1C(=O)NS(=O)(=O)c1cnc(NC[C@H]2CC[C@](C)(O)CC2)c([N+](=O)[O-])c1` [Example 131, 2-((3-fluoro-6-methoxy-1H-pyrrolo[2,3-b]pyridin-5-yl)oxy)-N-((6-((((1r,4r)-4-hydroxy-4-methylcyclohexyl)methyl)amino)-5-nitropyridin-3-yl)sulfonyl)-4-(2-((R)-2-(2-isopropylphenyl)-4-(oxetan-3-yl)piperazin-1-yl)-7-azaspiro[3.5]nonan-7-yl)benzamide], the IC50 came out at 1 nM.

Take `COc1nc2[nH]cc(F)c2cc1Oc1cc(N2CCC3(CC2)CC(N2CCN(C)C[C@H]2c2ccccc2C(C)C)C3)ccc1C(=O)NS(=O)(=O)c1cnc(NC[C@H]2CC[C@](C)(O)CC2)c([N+](=O)[O-])c1` [Example 137, 2-((3-fluoro-6-methoxy-1H-pyrrolo[2,3-b]pyridin-5-yl)oxy)-N-((6-((((1r,4r)-4-hydroxy-4-methylcyclohexyl)methyl)amino)-5-nitropyridin-3-yl)sulfonyl)-4-(2-((R)-2-(2-isopropylphenyl)-4-methylpiperazin-1-yl)-7-azaspiro[3.5]nonan-7-yl)benzamide]: the IC50 came to 1 nM.

Consider `CC(C)c1ccccc1[C@@H]1CN(C)CCN1C1CC2(CCN(c3ccc(C(=O)NS(=O)(=O)c4cnc(NC[C@H]5CC[C@](C)(O)CC5)c([N+](=O)[O-])c4)c(Oc4cnc5[nH]cc(F)c5c4)c3)CC2)C1` [Example 139, 2-((3-fluoro-1H-pyrrolo[2,3-b]pyridin-5-yl)oxy)-N-((6-((((1r,4r)-4-hydroxy-4-methylcyclohexyl)methyl)amino)-5-nitropyridin-3-yl)sulfonyl)-4-(2-((R)-2-(2-isopropylphenyl)-4-methylpiperazin-1-yl)-7-azaspiro[3.5]nonan-7-yl)benzamide], for which the IC50 is 1 nM.

Consider `COc1nc2[nH]cc(F)c2cc1Oc1cc(N2CCC3(CC2)CC(N2CCN(C4CC4)C[C@H]2c2ccccc2C(C)C)C3)ccc1C(=O)NS(=O)(=O)c1cnc(NC[C@H]2CC[C@](C)(O)CC2)c([N+](=O)[O-])c1` [Example 143, 4-(2-((R)-4-cyclopropyl-2-(2-isopropylphenyl)piperazin-1-yl)-7-azaspiro[3.5]nonan-7-yl)-2-((3-fluoro-6-methoxy-1H-pyrrolo[2,3-b]pyridin-5-yl)oxy)-N-((6-((((1r,4r)-4-hydroxy-4-methylcyclohexyl)methyl)amino)-5-nitropyridin-3-yl)sulfonyl)benzamide], for which the IC50 turned out to be 1 nM.

Take `CC(C)c1ccccc1[C@@H]1CN(C2CC2)CCN1C1CC2(CCN(c3ccc(C(=O)NS(=O)(=O)c4cnc(NC[C@H]5CC[C@](C)(O)CC5)c([N+](=O)[O-])c4)c(Oc4cnc5[nH]cc(F)c5c4)c3)CC2)C1` [Example 145, 4-(2-((R)-4-cyclopropyl-2-(2-isopropylphenyl)piperazin-1-yl)-7-azaspiro[3.5]nonan-7-yl)-2-((3-fluoro-1H-pyrrolo[2,3-b]pyridin-5-yl)oxy)-N-((6-((((1r,4r)-4-hydroxy-4-methylcyclohexyl)methyl)amino)-5-nitropyridin-3-yl)sulfonyl)benzamide]: the IC50 worked out at 1 nM.

With `CC(C)c1ccccc1[C@@H]1CN(C2COC2)CCN1C1CC2(CCN(c3ccc(C(=O)NS(=O)(=O)c4cnc(NC[C@H]5CC[C@](C)(O)CC5)c([N+](=O)[O-])c4)c(Oc4cnc5[nH]cc(F)c5c4)c3)CC2)C1` [Example 205, 2-((3-fluoro-1H-pyrrolo[2,3-b]pyridin-5-yl)oxy)-N-((6-((((1r,4r)-4-hydroxy-4-methylcyclohexyl)methyl)amino)-5-nitropyridin-3-yl)sulfonyl)-4-(2-((R)-2-(2-isopropylphenyl)-4-(oxetan-3-yl)piperazin-1-yl)-7-azaspiro[3.5]nonan-7-yl)benzamide], the IC50 was 1 nM.

`COc1nc2[nH]cc(F)c2cc1Oc1cc(N2CCC3(CC2)CC(N2CCN(Cc4ccc(C#N)cc4)C[C@H]2c2ccccc2C(C)C)C3)ccc1C(=O)NS(=O)(=O)c1cnc(NC[C@H]2CC[C@](C)(O)CC2)c([N+](=O)[O-])c1` [Example 236, 4-(2-((R)-4-(4-cyanobenzyl)-2-(2-isopropylphenyl)piperazin-1-yl)-7-azaspiro[3.5]nonan-7-yl)-2-((3-fluoro-6-methoxy-1H-pyrrolo[2,3-b]pyridin-5-yl)oxy)-N-((6-((((1r,4r)-4-hydroxy-4-methylcyclohexyl)methyl)amino)-5-nitropyridin-3-yl)sulfonyl)benzamide]: the IC50 is 1 nM.
